Assays:
Assay in all cases: relative viability (nuclei count vs DMSO), 5 days (fraction); higher = more cells survive
[1] = compound: C1=CC2=C(C=C(C(=C2N=C1)O)N=NC3=CC4=C(C=C3)C=C(C=C4)S(=O)(=O)O)S(=O)(=O)O
How it was run: (§1)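 Viability was defined as treated-well nuclei divided by vehicle-well nuclei, with the median taken over replicate plates. Cells from lung cancer lines sat overnight at 37 °C in 1536-well plates, received five √10-spaced library-drug doses by pinning on vehicle-anchored plates, and grew 5 days without medium change before one-step fixation, permeabilisation and Hoechst staining, 4× imaging and MetaXpress nuclear counts. Only plates with control CV under 25% and at least one doubling were kept.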

AT-7519 = compound: O=C(NC1CCNCC1)c1n[nH]cc1NC(=O)c1c(Cl)cccc1Cl [AT-7519]
How it was run: as §1

AT-7519 + Bortezomib = compound: O=C(NC1CCNCC1)c1n[nH]cc1NC(=O)c1c(Cl)cccc1Cl [AT-7519] + CC(C)C[C@H](NC(=O)[C@H](Cc1ccccc1)NC(=O)c1cnccn1)B(O)O [Bortezomib] (partner 0.002 µM)
How it was run: (§2)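 Relative viability divides the nuclei count in treated wells by that in vehicle wells. Lung cancer cell lines were seeded in 1536-well plates, dosed by pin tool the next day, and fixed and stained after 5 days in one step with final 0.05% Triton X-100, 1% formaldehyde and 1 ug/ml Hoechst. Dosing was a single drug or a fixed anchor-drug dose plus five library-drug doses (not always all listed) in √10 steps, and values are medians of duplicate plates imaged at 4×.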

[2] = compound: C1=CC2=C(C=C(C(=C2N=C1)O)N=NC3=CC4=C(C=C3)C=C(C=C4)S(=O)(=O)O)S(=O)(=O)O + Cc1nc(NC(=O)N2CCC[C@H]2C(N)=O)sc1-c1ccnc(C(C)(C)C(F)(F)F)c1 [Alpelisib] (partner 2 µM)
How it was run: as §2

Cell Line	relative viability ([1]; 0.08 µM)	relative viability ([1]; 0.253 µM)	relative viability ([1]; 0.8 µM)	relative viability ([1]; 2.53 µM)	relative viability ([1]; 8 µM)	relative viability (AT-7519; 0.01 µM)	relative viability (AT-7519; 0.03162 µM)	relative viability (AT-7519; 0.3162 µM)	relative viability (AT-7519; 1 µM)	relative viability (AT-7519 + Bortezomib; first compound 0.01 µM)	relative viability (AT-7519 + Bortezomib; first compound 0.03162 µM)	relative viability (AT-7519 + Bortezomib; first compound 0.3162 µM)	relative viability (AT-7519 + Bortezomib; first compound 1 µM)	relative viability ([2]; first compound 0.08 µM)	relative viability ([2]; first compound 0.253 µM)	relative viability ([2]; first compound 0.8 µM)	relative viability ([2]; first compound 2.53 µM)	relative viability ([2]; first compound 8 µM)
Calu-6	1	1.02	0.962	1.01	1.01	1.06	0.943	1.11	0.593	1.11	0.975	1	0.328	0.942	0.965	1.1	0.988	1.04
EBC-1	1.04	0.933	0.941	0.99	1.07	0.934	0.885	0.923	0.645	0.615	0.551	0.443	0.23	0.822	0.854	0.743	0.813	1.03
SW 1573	1.11	1.03	0.944	1.01	0.815	0.988	0.84	0.753	0.312	0.981	0.842	0.884	0.428	0.92	0.727	0.775	0.761	0.797
A-427	1.05	0.971	0.936	0.963	0.842	1.11	1.02	0.944	0.723	1.02	0.961	1.04	0.792	1.19	1.07	1.09	1.08	1.17
NCI-H2347	1.06	0.941	0.974	1.02	0.98	1.05	0.958	1.01	0.762	0.916	0.873	0.952	1.27	1.03	0.995	1.07	1.07	1.06
NCI-H1355	1.08	0.982	0.965	0.993	0.856	1.01	0.961	0.992	1.05	1.26	1.16	1.31	1.29	0.94	0.838	0.767	0.905	0.956
PC-3 [JPC-3]	1.04	1.03	1.04	1.06	0.997	1.01	1.02	1.01	1.03	0.947	0.863	0.86	0.848	1.11	1.02	0.971	1.04	0.998
NCI-H2228	1.31	1.03	0.907	1.01	0.957	1.15	0.926	0.936	0.591	0.977	0.801	0.66	0.8	0.687	0.787	0.778	0.655	0.695
HOP-62	1.06	0.931	0.964	1.03	1.04	0.949	0.949	1.04	1.04	0.723	0.825	0.827	0.718	1.27	1.14	1.19	0.817	0.704
HARA	1.03	0.871	0.995	0.953	0.806	0.86	0.897	1.07	0.892	1.14	1.16	1.1	1.06	0.907	0.873	0.791	0.894	0.845
NCI-H838	1	0.966	0.924	0.992	0.997	0.925	0.876	0.891	0.615	0.644	0.804	0.416	0.0826	1.22	0.959	1.05	1.05	0.97
NCI-H1755	1.03	0.962	0.949	1.01	1.03	1.01	0.994	1.02	0.963	0.927	1.09	0.976	0.969	1.02	0.874	0.933	0.949	0.956
HCC-78	1.03	0.957	0.894	1.03	0.95	0.999	0.93	1.06	1.05	0.479	0.38	0.6	0.516	0.406	0.325	0.319	0.345	0.266
IA-LM	1.02	0.954	0.785	0.896	0.934	0.912	0.874	0.856	0.854	0.927	0.979	0.781	0.302	0.85	0.561	0.751	0.965	0.832
NCI-H322M	1.07	0.93	0.901	0.877	0.951	0.913	0.947	0.773	0.798	1.2	1.26	1.27	1.52	0.917	0.82	0.687	0.846	0.814
NCI-H3122	1.03	0.976	0.98	0.999	0.956	1.09	1	1.01	0.699	1.03	1.01	1.06	0.688	0.891	0.795	0.719	0.732	0.76
COR-L23	1.09	1.04	1	1.05	0.946	1.12	0.865	0.936	0.424	0.994	0.863	0.82	0.2	0.818	0.691	0.728	0.704	0.593
NCI-H2087	0.942	0.999	0.941	0.934	0.869	1.03	0.874	0.991	0.4	0.82	1.05	0.811	0.51	0.938	0.888	1.08	0.977	0.989

Cell Line	relative viability ([1]; 0.08 µM)	relative viability ([1]; 0.253 µM)	relative viability ([1]; 0.8 µM)	relative viability ([1]; 2.53 µM)	relative viability ([1]; 8 µM)	relative viability (AT-7519; 0.01 µM)	relative viability (AT-7519; 0.03162 µM)	relative viability (AT-7519; 0.3162 µM)	relative viability (AT-7519; 1 µM)	relative viability (AT-7519 + Bortezomib; first compound 0.01 µM)	relative viability (AT-7519 + Bortezomib; first compound 0.03162 µM)	relative viability (AT-7519 + Bortezomib; first compound 0.3162 µM)	relative viability (AT-7519 + Bortezomib; first compound 1 µM)	relative viability ([2]; first compound 0.08 µM)	relative viability ([2]; first compound 0.253 µM)	relative viability ([2]; first compound 0.8 µM)	relative viability ([2]; first compound 2.53 µM)	relative viability ([2]; first compound 8 µM)
LC-2-ad	1.02	0.902	0.978	0.995	0.945	0.996	0.99	1.01	0.909	0.962	0.978	1.02	0.672	0.619	0.783	0.828	0.857	0.98
NCI-H1915	1.02	0.968	0.989	0.987	0.966	1.03	0.982	0.881	0.84	1.07	1.06	0.546	0.944	1.09	1.05	1.08	1.09	1.06
NCI-H2023	1.02	0.903	0.987	1.1	0.989	1.06	0.873	0.848	0.547	1.12	0.985	0.855	0.503	0.606	0.671	0.636	0.564	0.624
COR-L 105	0.988	0.78	0.95	1.06	0.865	0.924	0.933	0.769	0.54	0.75	0.898	0.65	0.344	1.05	1.03	1.26	0.966	1.08
RERF-LC-KJ	1.08	1.04	1.03	1.01	0.967	1.01	0.995	0.991	0.675	1.1	1.14	1.08	0.797	0.907	0.842	0.795	0.818	0.843
LXF-289	1.09	0.958	1.01	1.04	0.955	1	0.938	1.01	1.02	0.951	1.05	0.957	1.01	1.13	1.01	1.02	1.08	0.976
PC-14	1.02	0.95	0.944	1.07	0.94	0.971	0.94	0.928	0.714	0.807	0.71	0.861	0.618	1.03	0.875	0.891	0.994	0.967
NCI-H650	0.883	0.937	0.86	0.969	0.671	1.02	0.871	1.01	1.03	0.827	0.75	0.86	0.975	1.25	1.11	1.08	1.08	1.09
NCI-H1666	1.04	1.03	0.991	0.966	1.02	0.948	0.906	0.99	0.752	0.782	0.794	0.733	0.333	0.985	0.837	1.05	0.994	1.04
NCI-H2085	1.1	0.997	0.946	1.04	1.03	1.01	1	1.01	1.01	1.22	1.04	0.995	0.964	1.08	0.989	1.05	1	0.913
NCI-H1734	1.12	0.981	0.951	0.92	0.996	1.06	0.918	0.782	0.562	0.782	0.884	0.842	0.442	0.746	0.692	0.636	0.638	0.689
NCI-H2126	1.05	0.996	0.908	1.04	0.964	1.01	1	0.94	0.875	1.17	1.14	1.13	1.17	0.834	0.738	0.779	0.724	0.768
EMC-BAC-2	0.916	1.02	1.03	1.01	0.93	0.954	0.934	0.996	1.11	1.04	1.07	1.01	1.07	0.8	0.75	0.711	0.766	0.696
NCI-H1993	1.08	0.965	0.875	0.955	0.944	0.857	0.855	0.776	0.528	0.987	0.979	1.07	0.683	0.71	0.682	0.747	0.705	0.701
NCI-H520	1.09	0.926	1.02	0.985	1.08	1.06	0.925	0.915	0.695	0.745	0.628	0.413	0.323	0.907	0.846	0.923	0.869	0.995
NCI-H647	0.877	0.932	0.881	1.08	0.971	1	0.923	0.886	0.72	1.04	0.909	1.21	0.564	1.32	1.19	1.11	1.17	0.984
NCI-H1792	0.951	0.858	0.877	0.852	0.974	0.664	0.768	0.874	0.989	0.752	0.89	0.882	0.888	0.861	0.639	0.66	0.715	0.743
